{"source": "paper PMC7047128", "about": "“The Putative TCP-1 Chaperonin Is an Important Player Involved in Sialic Acid-Dependent Host Cell Invasion by Toxoplasma gondii” (Frontiers in Microbiology, 2020)", "molecular_target": "T1, TgTCP-1 (putative TCP-1 chaperonin, TGME49_318410) (Toxoplasma gondii, UniProt A0A125YLR8)", "T1 construct": "full-length CDS, aa 1-537, N-terminal GST tag kept (pGEX-4T-1), E. coli BL21 (DE3), about 85 kDa", "T1 sequence (A0A125YLR8 entry or part of it)": "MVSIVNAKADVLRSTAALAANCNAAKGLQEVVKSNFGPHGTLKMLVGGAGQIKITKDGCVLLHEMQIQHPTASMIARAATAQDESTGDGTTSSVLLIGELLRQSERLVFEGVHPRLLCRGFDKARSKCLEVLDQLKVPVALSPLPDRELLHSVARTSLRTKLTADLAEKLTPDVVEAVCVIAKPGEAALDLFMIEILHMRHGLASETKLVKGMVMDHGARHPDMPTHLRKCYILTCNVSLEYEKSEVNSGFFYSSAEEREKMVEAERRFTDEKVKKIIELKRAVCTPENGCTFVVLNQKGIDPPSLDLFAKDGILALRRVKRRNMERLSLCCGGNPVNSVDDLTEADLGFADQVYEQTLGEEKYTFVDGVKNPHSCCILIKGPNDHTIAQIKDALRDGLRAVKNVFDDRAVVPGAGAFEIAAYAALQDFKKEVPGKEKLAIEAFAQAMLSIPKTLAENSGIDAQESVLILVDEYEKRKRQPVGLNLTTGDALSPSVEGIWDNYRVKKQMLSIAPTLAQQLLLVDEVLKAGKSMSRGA", "test": "pull-down on sialic acid-agarose with competition by free sialic acid, anti-GST Western blot", "type": "binding", "details": "1 uM GST-TgTCP-1; free sialic acid 0.001-100 mg/mL; PBS wash; 4 C"}
{"smiles": "CC(=O)N[C@H]1[C@H]([C@H](O)[C@H](O)CO)OC(O)(C(=O)O)C[C@@H]1O", "note": "(stereo partly shown) [sialic acid]", "values": [{"measurement": "pull-down on sialic acid-agarose with competition by free sialic acid, anti-GST", "value": "binding of GST-TgTCP-1 to sialic acid-agarose was inhibited by sialic acid in a dose dependent manner"}]}
